From ChEMBL document CHEMBL3734659, “Identification of tris-(phenylalkyl)amines as new selective h5-HT2Breceptor antagonists” (Medchemcomm, 2015) come the findings set out here.

The target in assay [1] is T1, 5-hydroxytryptamine receptor 2A (Homo sapiens, UniProt P28223). Nature of the assay: Displacement of [3H]ketanserin from human recombinant 5-HT2A receptor expressed in HEKT cell membrane after 90 mins by scintillation counting method. Type of assay: cell-based. (Loss of bound radioactivity is the signal in a displacement assay; it reports binding, not function.)
Assay [2] concerns the target T2, 5-hydroxytryptamine receptor 2B (Homo sapiens, UniProt P41595). Nature of the assay: Displacement of [3H]LSD from human recombinant 5-HT2B receptor stably expressed in HEK cell membrane after 90 mins by scintillation counting method. Type of assay: cell membranes, HEK293.
The target in assay [3] is T3, 5-hydroxytryptamine receptor 2C (Homo sapiens, UniProt P28335).
T3 sequence (P28335 whole entry): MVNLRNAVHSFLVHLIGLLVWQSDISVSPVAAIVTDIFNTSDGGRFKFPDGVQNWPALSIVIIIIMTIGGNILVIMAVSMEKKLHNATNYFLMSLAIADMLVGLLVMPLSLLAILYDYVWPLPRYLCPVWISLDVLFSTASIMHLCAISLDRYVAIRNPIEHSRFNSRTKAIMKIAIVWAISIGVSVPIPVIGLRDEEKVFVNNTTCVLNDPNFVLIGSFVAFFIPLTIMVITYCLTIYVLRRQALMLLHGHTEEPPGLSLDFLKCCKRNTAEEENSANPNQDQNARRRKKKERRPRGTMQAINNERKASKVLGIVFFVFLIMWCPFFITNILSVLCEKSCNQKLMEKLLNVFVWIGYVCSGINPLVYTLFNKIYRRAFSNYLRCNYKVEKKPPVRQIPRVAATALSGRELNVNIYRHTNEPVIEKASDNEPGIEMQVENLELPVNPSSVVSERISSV
Nature of the assay: Displacement of [3H]mesulergine from human recombinant 5-HT2C receptor expressed in Flp-IN HEK cell membrane after 90 mins by scintillation counting method. Type of assay: cell membranes, HEK293.

For assay [4], the target named is T4, 5-hydroxytryptamine receptor 2C (Homo sapiens) (UniProt P28335).
T4 sequence (whole entry): T3 sequence (P28335 whole entry)
Nature of the assay: Displacement of [3H]mesulergine from human recombinant 5-HT2C receptor expressed in Flp-IN HEK cell membrane at 10 uM after 90 mins by scintillation counting method. Type of assay: cell membranes. Conditions: HEK293.

The test system of assay [5] is HEK293. Nature of the assay: Selectivity ratio of Ki for human recombinant 5-HT2A receptor expressed in HEKT cell membrane to Ki for human recombinant 5-HT2B receptor stably expressed in HEK cells. Type of assay: cell-based.
Assay [6] has as its system HEK293. Nature of the assay: Selectivity ratio of Ki for human recombinant 5-HT2C receptor to Ki for human recombinant 5-HT2B receptor stably expressed in HEK cell membrane. Type of assay: cell-based.
Assay [7] deals with T2, 5-hydroxytryptamine receptor 2B. Nature of the assay: Antagonist activity at human recombinant 5-HT2B receptor expressed in Flp-In HEK cells in the presence of agonist preincubated for 10 mins by FLIPR based calcium mobilization assay. Type of assay: functional, cell-based, HEK293. (Calcium assays in cells follow changes in intracellular calcium, usually with a dye or a luminescent sensor.)

Assay [8] has as its target T1, 5-hydroxytryptamine receptor 2A. Nature of the assay: Displacement of [3H]ketanserin from human recombinant 5-HT2A receptor expressed in HEKT cell membrane at 10 uM after 90 mins by scintillation counting method. Type of assay: cell membranes.
Assay [9] deals with T2, 5-hydroxytryptamine receptor 2B. Nature of the assay: Displacement of [3H]LSD from human recombinant 5-HT2B receptor stably expressed in HEK cell membrane at 10 uM after 90 mins by scintillation counting method. Type of assay: cell membranes. Conditions: HEK293.
For assay [10] the target is unchanged. Nature of the assay: Agonist activity at human recombinant 5-HT2B receptor expressed in Flp-In HEK cells preincubated for 10 mins by FLIPR based calcium mobilization assay. Type of assay: functional, cell-based. Conditions: HEK293.
The target is the same in assay [11]. Nature of the assay: Antagonist activity at human recombinant 5-HT2B receptor expressed in Flp-In HEK cells at 10 uM in the presence of agonist preincubated for 10 mins by FLIPR based calcium mobilization assay. Type of assay: functional, cell-based. Conditions: HEK293.

Molecules are shown by their SMILES. Calls of active or inactive are those of the source. The calls are words filed in the database; no cut-off is given here.

A word on the Ki: it is the dissociation constant of the complex between target and ligand, obtained from inhibition or displacement. In general, inhibition refers to the percentage by which the read-out fell short of the control. The IC50 is the concentration that inhibits the measured activity by half.

T2 sequence (P41595 whole entry): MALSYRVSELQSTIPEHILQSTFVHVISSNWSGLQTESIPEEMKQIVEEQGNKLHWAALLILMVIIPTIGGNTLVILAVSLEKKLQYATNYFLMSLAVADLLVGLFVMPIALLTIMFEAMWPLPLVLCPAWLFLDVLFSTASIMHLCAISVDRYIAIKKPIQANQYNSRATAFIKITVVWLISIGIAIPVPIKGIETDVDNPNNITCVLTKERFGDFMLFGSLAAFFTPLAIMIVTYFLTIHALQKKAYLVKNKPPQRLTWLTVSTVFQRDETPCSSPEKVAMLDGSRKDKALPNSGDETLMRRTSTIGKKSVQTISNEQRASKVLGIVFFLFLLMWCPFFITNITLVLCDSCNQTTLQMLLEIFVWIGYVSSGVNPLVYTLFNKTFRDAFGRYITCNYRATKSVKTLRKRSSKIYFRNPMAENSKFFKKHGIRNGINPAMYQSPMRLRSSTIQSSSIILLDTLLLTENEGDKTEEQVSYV
T1 sequence (P28223 whole entry): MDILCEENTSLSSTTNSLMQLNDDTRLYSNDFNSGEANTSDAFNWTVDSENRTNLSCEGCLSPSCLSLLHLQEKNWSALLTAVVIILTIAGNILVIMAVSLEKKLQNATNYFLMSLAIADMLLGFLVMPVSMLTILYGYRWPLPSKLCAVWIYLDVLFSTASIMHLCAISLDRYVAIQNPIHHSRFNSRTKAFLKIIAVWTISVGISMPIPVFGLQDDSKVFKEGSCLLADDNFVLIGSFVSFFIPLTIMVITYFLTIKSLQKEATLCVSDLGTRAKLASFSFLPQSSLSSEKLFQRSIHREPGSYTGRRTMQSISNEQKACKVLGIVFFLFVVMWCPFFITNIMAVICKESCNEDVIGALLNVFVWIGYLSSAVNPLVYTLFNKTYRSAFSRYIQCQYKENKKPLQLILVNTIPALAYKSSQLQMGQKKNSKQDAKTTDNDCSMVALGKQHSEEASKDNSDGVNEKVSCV

For the compound `COc1ccc(CCN(CC/C=C\c2ccccc2)Cc2ccc3c(c2)OCO3)cc1OC`, the Ki in assay [1] came to 0.226 µM; in assay [2], 0.021 µM; in assay [3] (read-out: Ki), 0.241 µM. The inhibition in assay [4], in [8] and in [9] was > 50% in each case. The Ratio Ki is 11 in the assay on HEK293 [5] and 12 with HEK293 [6]. Also, in assay [7], the IC50 was 6.31 µM. Further, in [10], the outcome was inactive.

Consider `Cn1ccc2cc3c(cc21)CCN3C(=O)Nc1cccnc1`, for which the Ki in assay [2] was 0.021 µM.

With `Cc1nc2sccn2c(=O)c1CCN1CCC(=C(c2ccc(F)cc2)c2ccc(F)cc2)CC1` [RITANSERIN], the inhibitory constant (Ki) in [3] (read-out: Ki) amounted to 0.0018 µM.

For `COc1ccc(CCN(CCCc2cc(OC)c(OC)c(OC)c2)Cc2ccc3c(c2)OCO3)cc1OC`, the figures for the inhibition constant (Ki) in assay [1], in [2] and in assay [3] (hek293) were 2.23 µM, 0.231 µM and “Not Active”, respectively. Besides, the IC50 in assay [7] is 12.6 µM. The inhibition in assay [8] and in assay [9] was > 50% throughout. Moreover, in assay [10], the outcome was inactive.

With `COc1ccc(CCN(CCc2ccccc2)CCc2ccc3c(c2)OCO3)cc1OC`, the Ki in assay [1] came out at 1.47 µM; in assay [2], 0.017 µM; in assay [3] (read-out: Ki), 0.69 µM. For the same compound, the inhibition in [4], in [8] and in assay [9] was > 50% throughout. Besides, the Ratio Ki with HEK293 [5] was 87; in the assay on HEK293 [6], 41. In addition, the IC50 in assay [7] was 10 µM. The result in [10] was inactive.

Consider `COc1ccccc1CCCN(CCc1ccc(OC)c(OC)c1)CCc1ccc2c(c1)OCO2`, for which the results for the inhibitory constant (Ki) in assay [1], in assay [2] and in [3] (read-out: Ki) were 0.14 µM, 0.0058 µM and 0.123 µM, respectively. Besides, the inhibition in assay [4], in [8] and in [9] was > 50% throughout. Besides, the Ratio Ki in the assay on HEK293 [5] was 24; in the assay on HEK293 [6], 21. Moreover, the IC50 in assay [7] is 10 µM. Also, in [10], the outcome was inactive.

For `COc1cccc(CCCN(CCc2ccc(OC)c(OC)c2)CCc2ccc3c(c2)OCO3)c1`, the Ki was determined as 0.2 µM in assay [1], 0.0046 µM in [2] and 0.108 µM in assay [3] (read-out: Ki). The inhibition in assay [4], in [8] and in assay [9] was > 50% each time. The figures for the Ratio Ki with HEK293 [5] and in the assay on HEK293 [6] were 43 and 24, respectively. Moreover, the IC50 in assay [7] was 1.26 µM. Moreover, the outcome in [10] was inactive.

In the case of `COc1ccc(CCN(CCc2ccc3c(c2)OCO3)Cc2ccccc2)cc1OC`, the Ki in assay [1] stood at 3.53 µM; in [2] it was 0.059 µM; in assay [3] (read-out: Ki), 1.09 µM. Moreover, the inhibition in assay [4], in assay [8] and in assay [9] was > 50% throughout. Moreover, the results for the Ratio Ki in the assay on HEK293 [5] and with HEK293 [6] were 60 and 19, respectively. The outcome in [10] was inactive.

Turning to `COc1ccc(OC)c(CCCN(CCc2ccc(OC)c(OC)c2)CCc2ccc3c(c2)OCO3)c1`, the Ki in assay [1] came to 0.919 µM; in assay [2], 0.036 µM; in assay [3] (read-out: Ki) it was 0.273 µM. Further, the inhibition in [4], in assay [8] and in assay [9] was > 50% each time. Besides, the Ratio Ki with HEK293 [5] came out at 26; in the assay on HEK293 [6], 8. Also, the IC50 in [7] is 7.94 µM. For the same compound, the outcome in assay [10] was inactive.

For the compound `COc1ccc(CCCN(CCc2ccc(OC)c(OC)c2)CCc2ccc3c(c2)OCO3)cc1`, the Ki is 0.267 µM in assay [1], 0.0068 µM in [2] and 0.206 µM in assay [3] (read-out: Ki). Moreover, the inhibition in [4], in assay [8] and in [9] was > 50% each time. The results for the Ratio Ki in the assay with HEK293 [5] and in the assay on HEK293 [6] were 39 and 30, respectively. Besides, in [7], the IC50 is 3.98 µM. In addition, the result in assay [10] was inactive.

As to `COc1ccc(CCN(CCCc2cc(OC)c(OC)c(OC)c2)CCc2ccc3c(c2)OCO3)cc1OC`, the figures for the inhibitory constant (Ki) in [1], in assay [2] and in [3] (read-out: Ki) were 0.146 µM, 0.0041 µM and 0.194 µM, respectively. For the same compound, the inhibition in assay [4], in [8] and in assay [9] was > 50% in each case. Also, the Ratio Ki in the assay with HEK293 [5] was determined as 36; in the assay on HEK293 [6], 47. For the same compound, the IC50 in [7] was 1.26 µM. Moreover, the result in [10] was inactive.

On to `COc1cccc(CCCN(CCc2ccc(OC)c(OC)c2)Cc2ccc3c(c2)OCO3)c1`, for which the Ki is 1.51 µM in assay [1], 0.059 µM in [2] and 0.103 µM in assay [3] (read-out: Ki). Besides, the inhibition in assay [4], in assay [8] and in [9] was > 50% in each case. Moreover, the Ratio Ki in the assay on HEK293 [5] was determined as 26; with HEK293 [6], 2. The outcome in assay [11] and in assay [10] was inactive.
